Data set [1] addresses Mu-type opioid receptor (Homo sapiens) (UniProt P35372). The experiment in a line: Inhibition of human mu opioid receptor at 10 uM by radioligand displacement assay.
The nature of data set [2]: Inhibition of proteasome chymotrypsin-like activity using Suc-LLVY-aminoluciferin as substrate by luciferase-coupled assay. It is filed as subcellular.
The target of data set [3] is T1, Adenosine receptor A3 (Homo sapiens) (UniProt P0DMS8).
T1 sequence (whole entry): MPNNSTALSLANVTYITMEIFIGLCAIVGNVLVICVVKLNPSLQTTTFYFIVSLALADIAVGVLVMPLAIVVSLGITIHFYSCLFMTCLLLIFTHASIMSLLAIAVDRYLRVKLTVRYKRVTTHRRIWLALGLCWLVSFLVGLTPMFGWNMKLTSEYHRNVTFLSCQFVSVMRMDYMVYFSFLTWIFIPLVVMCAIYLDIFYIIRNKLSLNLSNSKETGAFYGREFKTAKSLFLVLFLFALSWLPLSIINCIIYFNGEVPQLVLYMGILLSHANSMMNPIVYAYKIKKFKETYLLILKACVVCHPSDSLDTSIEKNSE
The data set can be described thus: Inhibition of human adenosine receptor A3 at 10 uM by radioligand displacement assay. (In general: Loss of bound radioactivity is the signal in a displacement assay; it reports binding, not function.)

Data set [4] deals with Sodium-dependent dopamine transporter (Homo sapiens) (UniProt Q01959). The experiment in a line: Inhibition of human DAT at 10 uM by radioligand displacement assay.
In a further data set the target is hERG (KCNH2) (Homo sapiens, UniProt Q12809). The data set can be described thus: Inhibition of human ERG at 10 uM by radioligand displacement assay.
Chain of hERG (KCNH2) (Q12809 whole entry): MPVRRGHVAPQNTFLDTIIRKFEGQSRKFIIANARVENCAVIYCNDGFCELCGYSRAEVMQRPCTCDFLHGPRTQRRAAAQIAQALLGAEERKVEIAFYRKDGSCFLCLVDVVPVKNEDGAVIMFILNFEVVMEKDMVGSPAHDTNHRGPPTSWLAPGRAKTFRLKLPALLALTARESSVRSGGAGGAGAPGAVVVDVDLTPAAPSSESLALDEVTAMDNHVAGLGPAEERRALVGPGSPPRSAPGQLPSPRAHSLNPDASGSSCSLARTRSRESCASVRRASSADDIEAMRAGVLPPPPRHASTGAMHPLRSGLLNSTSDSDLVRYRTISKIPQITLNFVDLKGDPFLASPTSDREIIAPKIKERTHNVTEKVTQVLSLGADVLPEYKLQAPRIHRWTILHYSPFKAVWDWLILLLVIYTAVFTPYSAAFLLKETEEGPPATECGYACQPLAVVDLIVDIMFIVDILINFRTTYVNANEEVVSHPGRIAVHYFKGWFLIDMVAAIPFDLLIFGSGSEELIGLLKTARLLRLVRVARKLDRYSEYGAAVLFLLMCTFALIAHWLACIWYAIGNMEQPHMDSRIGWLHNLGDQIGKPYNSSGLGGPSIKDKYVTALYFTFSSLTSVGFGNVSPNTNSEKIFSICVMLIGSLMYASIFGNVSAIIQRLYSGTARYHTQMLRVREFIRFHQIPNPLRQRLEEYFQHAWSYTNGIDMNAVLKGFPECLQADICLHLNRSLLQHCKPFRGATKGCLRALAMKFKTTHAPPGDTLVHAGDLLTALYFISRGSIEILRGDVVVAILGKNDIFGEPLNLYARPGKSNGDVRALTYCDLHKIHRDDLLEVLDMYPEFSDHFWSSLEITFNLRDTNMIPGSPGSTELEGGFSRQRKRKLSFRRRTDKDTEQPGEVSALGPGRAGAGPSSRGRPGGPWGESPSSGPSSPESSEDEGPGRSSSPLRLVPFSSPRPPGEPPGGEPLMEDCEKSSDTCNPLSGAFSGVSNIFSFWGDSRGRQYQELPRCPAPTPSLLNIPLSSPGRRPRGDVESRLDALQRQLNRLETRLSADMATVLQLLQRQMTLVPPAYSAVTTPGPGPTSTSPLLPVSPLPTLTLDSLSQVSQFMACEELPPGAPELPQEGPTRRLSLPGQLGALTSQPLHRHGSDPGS
Data set [5] has as its target 5-hydroxytryptamine receptor 2B (Homo sapiens) (UniProt P41595). The data set can be described thus: Inhibition of human 5HT2B at 10 uM by radioligand displacement assay.
The species named for data set [6] is Rattus norvegicus. The experiment in a line: Inhibition of rat sodium channel site 2 at 10 uM by radioligand displacement assay.
Data set [7] has as its target T2, Alpha-1D adrenergic receptor (Homo sapiens) (UniProt P25100).
T2 sequence (whole entry): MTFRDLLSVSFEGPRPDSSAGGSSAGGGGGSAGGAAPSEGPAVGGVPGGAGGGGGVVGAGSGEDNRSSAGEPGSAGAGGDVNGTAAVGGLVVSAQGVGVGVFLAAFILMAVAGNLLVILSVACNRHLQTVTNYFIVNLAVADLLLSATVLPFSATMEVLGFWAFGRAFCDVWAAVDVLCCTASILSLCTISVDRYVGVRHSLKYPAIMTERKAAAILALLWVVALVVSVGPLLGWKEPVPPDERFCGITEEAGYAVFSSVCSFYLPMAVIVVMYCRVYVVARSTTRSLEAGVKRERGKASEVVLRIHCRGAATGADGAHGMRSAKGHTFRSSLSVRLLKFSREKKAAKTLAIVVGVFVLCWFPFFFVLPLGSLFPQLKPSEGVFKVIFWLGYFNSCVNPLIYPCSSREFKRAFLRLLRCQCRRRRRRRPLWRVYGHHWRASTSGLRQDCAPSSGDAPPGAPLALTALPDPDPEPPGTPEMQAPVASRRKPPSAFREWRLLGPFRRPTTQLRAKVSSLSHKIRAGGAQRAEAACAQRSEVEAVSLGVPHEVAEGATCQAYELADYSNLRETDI
The data set can be described thus: Inhibition of human alpha1D adrenergic receptor at 10 uM by radioligand displacement assay.

In data set [8] the target is T3, Alpha-2A adrenergic receptor (Homo sapiens) (UniProt P08913).
T3 sequence (whole entry): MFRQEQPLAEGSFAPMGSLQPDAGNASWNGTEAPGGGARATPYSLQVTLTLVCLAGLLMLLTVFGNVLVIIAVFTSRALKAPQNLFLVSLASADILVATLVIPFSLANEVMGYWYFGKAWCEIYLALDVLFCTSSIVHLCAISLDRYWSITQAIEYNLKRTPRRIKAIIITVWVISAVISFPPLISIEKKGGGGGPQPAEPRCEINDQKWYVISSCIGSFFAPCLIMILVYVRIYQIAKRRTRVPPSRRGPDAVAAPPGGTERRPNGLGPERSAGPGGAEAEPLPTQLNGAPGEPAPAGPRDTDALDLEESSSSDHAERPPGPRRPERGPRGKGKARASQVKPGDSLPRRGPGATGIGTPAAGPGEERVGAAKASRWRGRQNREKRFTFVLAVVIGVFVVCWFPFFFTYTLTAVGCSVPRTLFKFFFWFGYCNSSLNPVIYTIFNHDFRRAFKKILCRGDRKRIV
The experiment in a line: Inhibition of human alpha2A adrenergic receptor at 10 uM by radioligand displacement assay.

The species entered for data set [9] is Rattus norvegicus. The data set can be described thus: Inhibition of rat L-type calcium channel dihydropyridine binding site at 10 uM by radioligand displacement assay.
Data set [10] addresses D(1A) dopamine receptor (Homo sapiens) (UniProt P21728). The data set can be described thus: Inhibition of human dopamine D1 receptor at 10 uM by radioligand displacement assay.
The target of data set [11] is D(3) dopamine receptor (Homo sapiens) (UniProt P35462). The data set can be described thus: Inhibition of human dopamine D3 receptor at 10 uM by radioligand displacement assay.
Chain of D(3) dopamine receptor (Homo sapiens) (P35462 whole entry): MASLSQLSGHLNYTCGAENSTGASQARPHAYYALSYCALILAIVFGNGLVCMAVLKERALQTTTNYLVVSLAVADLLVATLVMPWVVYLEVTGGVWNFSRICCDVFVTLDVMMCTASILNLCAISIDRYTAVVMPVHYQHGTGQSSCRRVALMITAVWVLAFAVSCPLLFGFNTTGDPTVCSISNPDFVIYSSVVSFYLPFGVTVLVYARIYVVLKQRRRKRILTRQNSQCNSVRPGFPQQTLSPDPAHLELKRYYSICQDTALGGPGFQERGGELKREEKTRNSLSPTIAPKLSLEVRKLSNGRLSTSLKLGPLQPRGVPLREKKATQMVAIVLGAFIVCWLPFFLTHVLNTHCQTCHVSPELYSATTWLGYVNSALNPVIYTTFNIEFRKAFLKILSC
Data set [12] has as its target Histamine H1 receptor (Homo sapiens) (UniProt P35367). The data set can be described thus: Inhibition of human histamine H1 receptor at 10 uM by radioligand displacement assay.
Another data set is filed under the species Homo sapiens. The data set can be described thus: Inhibition of human melatonin MT1 receptor at 10 uM by radioligand displacement assay.
For data set [13], the target named is Sodium-dependent noradrenaline transporter (Homo sapiens) (UniProt P23975). The experiment in a line: Inhibition of human NET at 10 uM by radioligand displacement assay.
Chain of Sodium-dependent noradrenaline transporter (Homo sapiens) (P23975 whole entry): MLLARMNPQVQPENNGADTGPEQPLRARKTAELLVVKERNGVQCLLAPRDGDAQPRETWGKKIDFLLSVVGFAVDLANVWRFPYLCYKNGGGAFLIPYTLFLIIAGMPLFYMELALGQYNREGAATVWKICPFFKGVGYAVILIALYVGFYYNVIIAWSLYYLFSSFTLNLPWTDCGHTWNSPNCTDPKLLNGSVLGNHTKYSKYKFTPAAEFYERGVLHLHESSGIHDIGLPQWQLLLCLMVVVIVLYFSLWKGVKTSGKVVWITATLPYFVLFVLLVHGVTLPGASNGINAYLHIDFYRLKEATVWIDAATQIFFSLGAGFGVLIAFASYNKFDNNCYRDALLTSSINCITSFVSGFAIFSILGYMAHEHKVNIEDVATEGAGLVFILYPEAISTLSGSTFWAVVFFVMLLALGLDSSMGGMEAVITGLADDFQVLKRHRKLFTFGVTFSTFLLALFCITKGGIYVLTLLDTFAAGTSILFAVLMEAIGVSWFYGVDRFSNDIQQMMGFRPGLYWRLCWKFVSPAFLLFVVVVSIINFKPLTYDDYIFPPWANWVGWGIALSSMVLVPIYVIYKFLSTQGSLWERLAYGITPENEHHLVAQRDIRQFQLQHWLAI
Data set [14] concerns the target Kappa-type opioid receptor (Homo sapiens) (UniProt P41145). The experiment in a line: Inhibition of human kappa opioid receptor at 10 uM by radioligand displacement assay.
The target of data set [15] is Prostaglandin E2 receptor EP4 subtype (Homo sapiens) (UniProt P35408). The experiment in a line: Inhibition of human prostanoid EP4 receptor at 10 uM by radioligand displacement assay.
Chain of Prostaglandin E2 receptor EP4 subtype (Homo sapiens) (P35408 whole entry): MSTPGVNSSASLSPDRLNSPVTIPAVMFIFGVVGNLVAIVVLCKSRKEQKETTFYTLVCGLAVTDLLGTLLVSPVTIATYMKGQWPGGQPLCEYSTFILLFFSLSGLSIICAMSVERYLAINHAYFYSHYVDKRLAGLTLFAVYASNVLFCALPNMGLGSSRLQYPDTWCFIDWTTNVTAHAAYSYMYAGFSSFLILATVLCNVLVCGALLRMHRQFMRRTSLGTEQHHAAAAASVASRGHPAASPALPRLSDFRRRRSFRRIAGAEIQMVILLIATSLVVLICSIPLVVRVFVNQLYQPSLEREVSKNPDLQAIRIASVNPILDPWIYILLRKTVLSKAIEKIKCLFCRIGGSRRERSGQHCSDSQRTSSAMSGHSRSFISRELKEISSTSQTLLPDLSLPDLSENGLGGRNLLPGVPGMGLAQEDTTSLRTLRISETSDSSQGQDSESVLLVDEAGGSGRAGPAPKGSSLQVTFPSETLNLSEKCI
Data set [16] has as its system U2OS. The data set can be described thus: Cytotoxicity against human U2OS cells expressing human HIF1alpha by CellTiterGlo assay in presence of 50 uM iron. The format is cell-based.
Data set [17] has as its system U2OS. The data set can be described thus: Cytotoxicity against human U2OS cells expressing human HIF1alpha by CellTiterGlo assay in presence of 50 uM zinc. It is filed as cell-based. On the technique in general: In ATP-based viability assays light output follows the ATP content of the culture.

This passage reports inhibition and Activity results from ChEMBL document CHEMBL2150882, “Discovery of a new molecular probe ML228: an activator of the hypoxia inducible factor (HIF) pathway” (Bioorg Med Chem Lett, 2012).

In general, inhibition refers to the drop in the measured response relative to a control, in per cent.

Molecules are shown by their SMILES. Active and inactive are the calls of the source. No cut-off for these calls is given here.

Chain of Mu-type opioid receptor (Homo sapiens) (P35372 whole entry): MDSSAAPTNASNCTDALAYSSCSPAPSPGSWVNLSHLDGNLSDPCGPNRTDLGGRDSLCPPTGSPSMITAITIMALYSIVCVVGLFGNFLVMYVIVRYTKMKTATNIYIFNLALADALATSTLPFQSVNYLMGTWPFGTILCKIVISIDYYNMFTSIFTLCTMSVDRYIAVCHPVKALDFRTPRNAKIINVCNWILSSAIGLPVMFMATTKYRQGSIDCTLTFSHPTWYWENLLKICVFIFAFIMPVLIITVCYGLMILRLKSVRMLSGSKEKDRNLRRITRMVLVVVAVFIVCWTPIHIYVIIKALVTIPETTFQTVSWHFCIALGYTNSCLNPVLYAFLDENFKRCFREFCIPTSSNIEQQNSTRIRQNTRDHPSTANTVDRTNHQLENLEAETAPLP
Chain of D(1A) dopamine receptor (Homo sapiens) (P21728 whole entry): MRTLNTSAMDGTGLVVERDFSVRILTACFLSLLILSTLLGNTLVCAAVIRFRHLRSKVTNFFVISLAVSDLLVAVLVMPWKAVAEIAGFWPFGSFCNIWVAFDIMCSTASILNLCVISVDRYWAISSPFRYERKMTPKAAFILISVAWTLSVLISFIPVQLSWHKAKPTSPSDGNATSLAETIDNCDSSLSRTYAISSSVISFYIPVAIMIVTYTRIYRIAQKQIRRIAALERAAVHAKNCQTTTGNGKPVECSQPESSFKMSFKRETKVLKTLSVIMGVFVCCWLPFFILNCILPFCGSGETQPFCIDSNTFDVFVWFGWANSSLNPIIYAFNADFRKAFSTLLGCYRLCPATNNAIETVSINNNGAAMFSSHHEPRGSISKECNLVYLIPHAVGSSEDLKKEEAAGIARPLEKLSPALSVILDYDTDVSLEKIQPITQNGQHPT
Chain of Kappa-type opioid receptor (Homo sapiens) (P41145 whole entry): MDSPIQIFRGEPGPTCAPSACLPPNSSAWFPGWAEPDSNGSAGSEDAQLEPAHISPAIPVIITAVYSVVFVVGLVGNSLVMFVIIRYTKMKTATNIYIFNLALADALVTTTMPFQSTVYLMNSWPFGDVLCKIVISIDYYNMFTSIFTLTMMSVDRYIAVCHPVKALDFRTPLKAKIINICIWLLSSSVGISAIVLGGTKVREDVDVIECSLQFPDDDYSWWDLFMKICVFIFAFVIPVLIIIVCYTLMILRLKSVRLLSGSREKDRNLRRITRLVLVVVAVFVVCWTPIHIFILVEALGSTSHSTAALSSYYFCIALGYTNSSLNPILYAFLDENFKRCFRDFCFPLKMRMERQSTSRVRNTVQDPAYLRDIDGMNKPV
Chain of 5-hydroxytryptamine receptor 2B (Homo sapiens) (P41595 whole entry): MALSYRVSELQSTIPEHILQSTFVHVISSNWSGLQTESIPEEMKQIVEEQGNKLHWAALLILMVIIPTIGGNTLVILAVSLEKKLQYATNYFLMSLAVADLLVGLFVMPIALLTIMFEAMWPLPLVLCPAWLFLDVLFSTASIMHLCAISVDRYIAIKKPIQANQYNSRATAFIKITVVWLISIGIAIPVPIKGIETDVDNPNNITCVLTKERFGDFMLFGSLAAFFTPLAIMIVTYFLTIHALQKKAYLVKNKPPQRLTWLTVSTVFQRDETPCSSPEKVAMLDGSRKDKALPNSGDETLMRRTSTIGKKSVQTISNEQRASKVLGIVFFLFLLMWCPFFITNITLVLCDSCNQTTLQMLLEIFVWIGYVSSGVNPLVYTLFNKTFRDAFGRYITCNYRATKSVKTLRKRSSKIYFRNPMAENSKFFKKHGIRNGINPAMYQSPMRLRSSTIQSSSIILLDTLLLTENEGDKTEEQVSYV
Chain of Histamine H1 receptor (Homo sapiens) (P35367 whole entry): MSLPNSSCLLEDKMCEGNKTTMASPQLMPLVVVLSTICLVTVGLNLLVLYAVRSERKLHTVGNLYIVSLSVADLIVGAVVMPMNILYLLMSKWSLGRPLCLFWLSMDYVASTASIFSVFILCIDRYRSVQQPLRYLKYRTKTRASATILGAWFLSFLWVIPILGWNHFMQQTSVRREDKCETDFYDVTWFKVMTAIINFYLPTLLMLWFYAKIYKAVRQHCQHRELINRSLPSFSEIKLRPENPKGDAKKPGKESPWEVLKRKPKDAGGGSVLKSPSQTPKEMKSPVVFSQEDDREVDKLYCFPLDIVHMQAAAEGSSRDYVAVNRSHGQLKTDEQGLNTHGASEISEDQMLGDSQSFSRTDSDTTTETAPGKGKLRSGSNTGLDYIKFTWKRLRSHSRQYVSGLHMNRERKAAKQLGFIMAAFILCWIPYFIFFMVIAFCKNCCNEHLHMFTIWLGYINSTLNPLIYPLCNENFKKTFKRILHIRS

Take `CCCCNC(=O)c1cc(-c2ccc(F)cc2)on1`: the inhibition result in data set [1] is “inactive”.
Regarding `c1ccc(-c2ccc(CNc3nc(-c4ccccn4)nnc3-c3ccccc3)cc2)cc1`, the inhibition entry in [2] was “inactive”. The inhibition in [3] was 80%; in [4], 87%; in [1] it was 85%; in data set [5], 92%; in the data set listed under Rattus norvegicus [6] it was 105%; in [7] it was 53%. Also, the inhibition in data set [8] is 57%; in the data set filed under Rattus norvegicus [9], 56%; in [10], 54%; in data set [11] it was 67%; in data set [12], 65%; in the data set listed under Homo sapiens, 51%. The inhibition in data set [13] turned out to be 67%; in data set [14] it was 71%; in data set [15], 53%. At hERG (KCNH2), the inhibition at 10 µM was 86%. Moreover, the Activity result in the data set on U2OS [16] and in the data set on U2OS [17] was “Non-toxic” throughout.
For the compound `O=C(NCCCCO)c1cc(-c2ccccc2)on1`, in data set [1], the inhibition result is “inactive”.
Still for that read-out and setting: to `O=C(NCCCn1ccnc1)c1cc(-c2ccccc2)on1` belongs “inactive”; to `O=C(NCC1CC1)c1cc(-c2ccccc2)on1`, “inactive”; to `O=C(NCCCN1CCOCC1)c1cc(-c2ccccc2)on1`, “inactive”.
